Assay results published in paper PMC5237709 (Acta Pharmaceutica Sinica. B, 2016).

Tests used:
N-Hsp90 = N-Hsp90 (Saccharomyces cerevisiae, UniProt P02829); assay: Fluorescence quenching titration of N-terminal domain of Hsp90; format: binding, Yeast; conditions: N-Hsp90 (1–236)
M-Hsp90 = M-Hsp90 (Saccharomyces cerevisiae, UniProt P02829); assay: Fluorescence quenching titration of middle domain of Hsp90; format: binding, Yeast; conditions: M-Hsp90 (272–617)
C-Hsp90 = biological target: T1, C-Hsp90 (Saccharomyces cerevisiae, UniProt P02829); assay: Fluorescence quenching titration of C-terminal domain of Hsp90; format: binding, Yeast; conditions: C-Hsp90 (629–732)
T1 sequence (P02829 608-709): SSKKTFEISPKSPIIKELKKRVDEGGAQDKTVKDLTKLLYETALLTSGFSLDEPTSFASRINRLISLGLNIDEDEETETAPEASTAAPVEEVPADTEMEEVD

Hsp90 ATPase = Hsp90 ATPase (Saccharomyces cerevisiae, UniProt P02829); assay: Hsp90 ATPase activity assay; format: biochemical, Yeast
Sequence of Hsp90 ATPase (P02829 whole entry): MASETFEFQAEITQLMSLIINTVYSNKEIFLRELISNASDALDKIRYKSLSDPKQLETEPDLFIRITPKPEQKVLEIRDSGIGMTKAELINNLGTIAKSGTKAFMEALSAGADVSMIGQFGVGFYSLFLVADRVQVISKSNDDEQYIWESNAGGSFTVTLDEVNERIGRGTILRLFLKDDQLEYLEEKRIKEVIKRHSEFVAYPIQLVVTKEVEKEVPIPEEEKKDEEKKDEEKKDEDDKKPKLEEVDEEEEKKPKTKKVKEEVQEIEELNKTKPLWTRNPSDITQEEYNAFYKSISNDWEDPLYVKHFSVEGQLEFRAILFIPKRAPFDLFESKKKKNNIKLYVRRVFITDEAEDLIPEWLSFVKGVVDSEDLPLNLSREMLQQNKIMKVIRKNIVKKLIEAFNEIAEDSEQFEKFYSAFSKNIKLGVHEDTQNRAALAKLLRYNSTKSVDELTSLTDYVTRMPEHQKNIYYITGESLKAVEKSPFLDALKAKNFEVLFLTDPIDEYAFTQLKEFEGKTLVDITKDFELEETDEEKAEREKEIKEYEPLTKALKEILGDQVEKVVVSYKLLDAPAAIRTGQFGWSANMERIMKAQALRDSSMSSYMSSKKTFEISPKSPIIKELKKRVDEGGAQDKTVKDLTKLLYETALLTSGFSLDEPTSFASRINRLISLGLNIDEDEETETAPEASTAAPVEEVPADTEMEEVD

Sequence of N-Hsp90 (P02829 1-223): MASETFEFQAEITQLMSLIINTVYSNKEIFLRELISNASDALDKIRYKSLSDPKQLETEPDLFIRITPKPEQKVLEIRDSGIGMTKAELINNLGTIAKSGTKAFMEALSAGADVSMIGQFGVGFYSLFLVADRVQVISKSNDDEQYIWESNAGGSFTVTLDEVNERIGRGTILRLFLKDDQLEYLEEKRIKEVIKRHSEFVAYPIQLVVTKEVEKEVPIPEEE
Sequence of M-Hsp90 (P02829 252-596): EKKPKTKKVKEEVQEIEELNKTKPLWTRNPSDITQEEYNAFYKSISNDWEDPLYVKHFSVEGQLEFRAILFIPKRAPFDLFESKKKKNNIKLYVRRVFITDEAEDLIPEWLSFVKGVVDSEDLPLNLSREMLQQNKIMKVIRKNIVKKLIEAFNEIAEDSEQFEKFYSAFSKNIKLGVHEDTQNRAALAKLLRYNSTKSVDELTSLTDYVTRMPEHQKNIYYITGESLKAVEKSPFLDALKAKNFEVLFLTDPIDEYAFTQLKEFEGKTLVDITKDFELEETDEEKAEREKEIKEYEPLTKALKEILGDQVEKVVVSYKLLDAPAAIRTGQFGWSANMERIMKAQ

An Fmax (N-Hsp90) of 221.22±4.91, an Fmax (M-Hsp90) of 158.20±1.68 and an Fmax (C-Hsp90) of 67.91±0.63 were found for `COC1=C2C[C@@H](C)C[C@H](OC)[C@H](O)[C@@H](C)/C=C(\C)[C@H](OC(N)=O)[C@@H](OC)/C=C\C=C(/C)C(=O)NC(=CC1=O)C2=O` [GA, Geldanamycin] in this work. The “Inhibition of the ATPase activity of Hsp90 (in words)” value (Hsp90 ATPase) was “dose-dependent inhibition”.
